According to patent US20170143712A1, “Methods of Treating Cancers, Immune and Autoimmune Diseases, and Inflammatory Diseases Based on BTK Occupancy and BTK Resynthesis Rate” (Acerta Pharma B.V., priority 2014, published 2017):
Entries after “also recorded” stand apart in the source; their conditions may differ. Read-outs that look alike come from different tables or passages of the source.

Legend:
[1] = target: T1, BTK (Homo sapiens, UniProt Q06187); experiment: p-BTK after ex vivo BCR stimulation in CD19+/CD5+ CLL tumor cells (phospho-flow cytometry); conditions: CLL patients on oral treatment
[2] = target: T1, BTK; experiment: BTK occupancy in PBMCs / peripheral blood B lymphocytes of healthy volunteers (active-site probe ELISA); assay type: in vivo; conditions: for receptor occupancy at 15 mg: human
Experimental: The presence of inactivated BTK in peripheral blood B lymphocytes was measured using a BTK active-site specific probe in an ELISA assay and expressed as a percentage of pre-study levels.
A Phase 1, single-center, open-label, single-treatment study in healthy volunteers was conducted to assess the BTK occupancy of Formula (II) after multiple-dose administration in healthy adult subjects under fasting conditions. The study primarily focused on characterizing the pharmacodynamics (PD) of Formula (II) by assessing the BTK occupancy profile of Formula (II) in peripheral blood mononuclear cells (PBMCs) and by measuring the expression of lymphocyte B activation markers, CD69 and CD86, during and after multiple oral dose administration of 15 mg daily in healthy subjects. As a secondary objective, the study evaluated the pharmacokinetic (PK) profile, safety, and tolerability after multiple-dose administrations of Formula (II) in the healthy subjects. Moreover, the study determined the effects of Formula (II) on peripheral blood T cells and myeloid-derived suppressor cells (MDSCs).
Forty, healthy adult, non-tobacco using men and women were enrolled in the study. A 15 mg Formula (II) dose (1×15 mg capsule) was administered once daily (QD) to each subject for 7 consecutive days (Days 1 to 7) with a washout period (6 days). PD blood samples were collected from each subject before dosing on Day 1, throughout the study, and up to 144 hours after dosing on Day 7 to characterize Formula (II) PD effects. PK sampling for Formula (II) was also collected before dosing on Day 1, throughout the study, and for 24 hours after dosing on Day 7. Additionally, potential Formula (II) safety issues were monitored through physical examination, vital sign measurements, 12 lead electrocardiograms (ECGs), AEs and clinical laboratory tests.
The occupancy of BTK by Formula (II) was measured in PBMCs with the aid of a biotin tagged Formula (II) analogue probe. The effect of Formula (II) on functional activation of B cells following BCR stimulation (measured via the phorphorylation of BTK and upregulation of CD69 and CD86 activation markers) was also evaluated.

[3] = tested on: B cell receptor (BCR); experiment: Ex vivo anti-IgM induced CD86 and CD69 expression on splenocyte B cells after oral dosing of mice; assay type: in vivo, mouse; conditions: single oral 25 mg/kg
Experimental: B cell stimulation through the B cell receptor (BCR) with antibodies (e.g., anti-IgM) results in the activation of BTK and subsequent cellular changes, including the upregulation of various cell surface receptors. Measuring the inhibition of BCR induced protein phosphorylation downstream of Btk, and the inhibition of surface receptor upregulation provides a way to assess the Btk inhibitor activity. In the first study, the BTK target occupancy in splenocytes was measured over time, providing evidence for BTK resynthesis in the tissue compartment of interest.
Mice were sacrificed at 3, 6, 12, 18, and 24 hours after treatment with the BTK inhibitors (FIG. 27A, FIG. 27B, and FIG. 27C). Spleens were harvested and splenocyte preparations were made for flow cytometry analysis of B cell functions. Fresh or cryopreserved splenocytes were cultured with a-IgM to stimulate BCR, and the up-regulation of CD69, an early functional marker of B cell activation, was analyzed by flow cytometry.

[4] = target: T2, BTK (Canis lupus familiaris, UniProt A0A8I3P3Z9); experiment: BTK target occupancy in peripheral B-cells and lymph node fine needle aspirates of dogs with spontaneous lymphoma; assay type: in vivo, dog
T2 construct: Purified peripheral B-cells and FNA samples were snap-frozen for measurement of BTK target occupancy; from tissue; host or cells: peripheral blood CD21+ B cells and lymph node fine needle aspirates of companion dogs with spontaneous lymphoma, dosed in vivo
Experimental: Dogs were administered Formula (II) orally once daily and evaluations occurred every 7 days for the first 4 weeks of the study, then every 14 days thereafter. PBMCs and lymph node fine needle aspirates (lymphoma patients only) were obtained for PD analysis on day 0 at time 0 hr and 3 hr, and again at pre-dose (Cmin) on day 7 of drug administration. In each cohort, PK analysis was performed in 2 dogs on day 14 of the study consisting of blood sampling at 0, 0.5, 1, 2, 3, 4, 6, 8, 12, and 24 hr following drug administration.
Peripheral blood mononuclear cells (PBMCs) were isolated from blood and the CD21+ B-cells were enriched by positive magnetic selection. For fine needle aspiration (FNA) samples, erythrocytes were lysed with ammonium chloride lysis buffer. Purified peripheral B-cells and FNA samples were snap-frozen for measurement of BTK target occupancy. BTK target occupancy was measured using an ELISA with anti-BTK as a capture antibody and a biotinylated active site probe for BTK, followed by streptavidin-HRP as a detection reagent. The ex vivo incubation with Formula (II) provided a baseline signal for each sample. BTK occupancy in the B cell lysates from peripheral B-cells and lymph node FNA preparations was calculated as a percentage of the control after correction for baseline chemoluminescence. All samples were run in quadruplicate.

[5] = target: T1, BTK; experiment: Intracellular total BTK protein in peripheral blood B lymphocytes of healthy volunteers (flow cytometry); assay type: in vivo
Experimental: The percentage of pre-study BTK protein level was determined in cryopreserved B cells by flow cytometry analysis of Mean Fluorescence Intensity.

[6] = tested on: ID8 ovarian cancer; experiment: ID8 syngeneic orthotropic ovarian cancer murine model; assay type: in vivo, mouse; conditions: 15 mg/kg/BID orally vs vehicle
Excerpt: The ID8 syngeneic orthotropic ovarian cancer murine model was used to investigate the therapeutic efficacy of the BTK inhibitor of Formula (II) through treatment of the solid tumor microenvironment. Human ovarian cancer models, including the ID8 syngeneic orthotropic ovarian cancer model and other animal models, are described in Fong and Kakar, J. Ovarian Res. 2009, 2, 12; Greenaway, et al., Gynecol. Oncol. 2008, 108, 385-94; Urzua, et al., Tumour Biol. 2005, 26, 236-44; Janat-Amsbury, et al., Anticancer Res. 2006, 26, 3223-28; Janat-Amsbury, et al., Anticancer Res. 2006, 26, 2785-89. Animals were treated with vehicle or Formula (II), 15 mg/kg/BID given orally. The results of the study are shown in FIG. 35A, FIG. 35B, FIG. 36, FIG. 37, FIG. 38A, FIG. 38B, FIG. 39A, and FIG. 39B.

[7] = 3 hr after administration, all cohorts

T2 sequence (A0A8I3P3Z9 1-664): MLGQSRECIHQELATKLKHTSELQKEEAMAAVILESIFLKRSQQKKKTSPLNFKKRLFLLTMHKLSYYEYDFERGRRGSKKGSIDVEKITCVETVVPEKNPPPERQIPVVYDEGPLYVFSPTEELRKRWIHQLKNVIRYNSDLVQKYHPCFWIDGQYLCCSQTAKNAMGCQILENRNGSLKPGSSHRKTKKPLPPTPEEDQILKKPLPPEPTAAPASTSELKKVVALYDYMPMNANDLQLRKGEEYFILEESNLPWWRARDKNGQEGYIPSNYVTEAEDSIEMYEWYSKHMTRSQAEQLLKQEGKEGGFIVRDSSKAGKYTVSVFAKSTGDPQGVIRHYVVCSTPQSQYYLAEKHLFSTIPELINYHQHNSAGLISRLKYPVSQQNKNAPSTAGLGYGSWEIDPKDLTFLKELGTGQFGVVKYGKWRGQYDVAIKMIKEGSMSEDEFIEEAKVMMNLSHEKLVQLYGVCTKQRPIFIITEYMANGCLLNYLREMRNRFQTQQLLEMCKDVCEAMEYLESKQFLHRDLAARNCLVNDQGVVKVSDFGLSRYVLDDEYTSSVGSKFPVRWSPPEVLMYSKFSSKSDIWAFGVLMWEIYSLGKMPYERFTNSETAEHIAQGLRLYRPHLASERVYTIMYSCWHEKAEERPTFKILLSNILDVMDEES
T1 sequence (Q06187 whole entry): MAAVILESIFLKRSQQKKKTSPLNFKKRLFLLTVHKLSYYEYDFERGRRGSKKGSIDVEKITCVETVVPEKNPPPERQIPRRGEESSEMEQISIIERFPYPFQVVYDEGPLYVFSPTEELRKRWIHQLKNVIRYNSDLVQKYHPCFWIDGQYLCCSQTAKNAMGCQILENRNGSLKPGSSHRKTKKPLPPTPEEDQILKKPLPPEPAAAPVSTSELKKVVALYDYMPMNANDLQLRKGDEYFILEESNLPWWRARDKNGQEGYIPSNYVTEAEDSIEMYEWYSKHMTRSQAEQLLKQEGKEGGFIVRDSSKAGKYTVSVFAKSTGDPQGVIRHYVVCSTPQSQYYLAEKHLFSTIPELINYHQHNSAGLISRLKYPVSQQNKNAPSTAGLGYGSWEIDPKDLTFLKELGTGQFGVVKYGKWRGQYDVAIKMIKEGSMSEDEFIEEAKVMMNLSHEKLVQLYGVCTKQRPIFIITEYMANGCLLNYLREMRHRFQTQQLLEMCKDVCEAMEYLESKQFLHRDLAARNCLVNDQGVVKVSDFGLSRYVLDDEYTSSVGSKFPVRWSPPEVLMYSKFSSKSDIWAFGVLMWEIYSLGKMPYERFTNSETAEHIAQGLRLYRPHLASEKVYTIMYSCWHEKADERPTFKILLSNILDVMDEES

CC#CC(=O)N1CCC[C@H]1c1nc(-c2ccc(C(=O)Nc3ccccn3)cc2)c2c(N)nccn12 [Formula (II), (S)-4-(8-amino-3-(1-(but-2-ynoyl)pyrrolidin-2-yl)imidazo[1,5-a]pyrazin-1-yl)-N-(pyridin-2-yl)benzamide]
BCR-mediated signaling through BTK (p-BTK after ex vivo BCR stimulation) [1]: significantly inhibited; also recorded: decreased BTK activation | estimated half-life of occupied BTK (BTK resynthesis t1/2) ([2]; 15 mg QD, Days 1 and 2, initial post-dose rate): 20 h | modeled rate of BTK resynthesis (t1/2) ([2]; after 7 days dosing with 15 mg, and after a 25 mg BID dose): 119 h | estimated half-life of occupied BTK (BTK resynthesis t1/2) ([2]; after discontinuation of 15 mg QD x 7 days at steady state, later rate): 119 h | modeled rate of BTK resynthesis (t1/2) ([2]; early doses of 15 mg QD, or a single 25 mg QD dose): 20 h | receptor occupancy at 15 mg ([2]; 15 mg QD for 7 days, read-out: peak BTK occupancy at steady state): > 90% | receptor occupancy at 15 mg ([2]; 15 mg QD, Days 1 and 2, read-out: BTK target occupancy at the end of the dosing interval): ~60% | inhibition at 25 mg/kg ([3]; Mus musculus, B-cell, 3-24 hours, read-out: CD69 % inhibition over the entire time course): 84.3% | inhibition of ex vivo anti-IgM induced responses in B cells ([3]; 3 hours post-dose): near complete inhibition | inhibition of CD86 and CD69 expression ([3]; persisting for 24 hours): partial inhibition | BTK occupancy in lymph node FNAs [4, 7]: > 90% | BTK occupancy in peripheral B-cells [4, 7]: ≥ 90% | BTK occupancy in peripheral blood sample ([4]; day 7 pre-dose, steady state (24 hr QD or 12 hr BID after dose)): Full BTK occupancy | BTK occupancy in tumor bearing lymph nodes ([4]; pre-dose Day 7): 82-88% | intracellular total BTK protein level in B lymphocytes ([5]; 15 mg QD x 7 days, after 48 hours (between Day 2 and Day 3)): Decreased BTK levels; also recorded: decrease | intracellular total BTK protein level in B lymphocytes ([5]; 15 mg QD, after the initial dose): increased | CD8+ T cells [6]: increase | ID8 ovarian cancer growth [6]: impairs ID8 ovarian cancer growth | immunosuppressive B cells in tumor-bearing mice [6]: significant reduction | immunosuppressive tumor associated Tregs [6]: significant reduction | immunosuppressive tumor-associated lymphocytes [6]: significant reduction
